Test results taken from patent US12568964B2 (priority 2019, dated 2026).
Read-outs that look alike come from different tables or passages of the source.

Test system: Xylella fastidiosa
Assay type: in vivo
Conditions: 5 treatments; for Phenotypic improvement of infected olive plants after treatment: 5% w/v, sprayed on foliage, trunk and adjacent soil; for State of treated plants at 9 months after the treatment: 5% w/v in bidistilled water, 9 months after treatment

Compound | Phenotypic improvement of infected olive plants after treatment (Example 3.1: three olive trees, 200 mg per plant suspended in bidistilled water, one every 5 days) | State of treated plants at 9 months after the treatment (Example 3.1: three olive trees, 200 mg per plant, one every 5 days) | Phenotypic improvement of infected olive plants after treatment (Example 3.4: four olive trees, 150 mg per plant suspended in bidistilled water, one every 5 days) | State of treated plants at 9 months after the treatment (Example 3.4: four olive trees, 150 mg per plant)
5-hydroxy-naphthalen-1,4-dione complexed with copper | Phenotypic improvements of the plant were observed with the birth of new shoots on the branches previously in a state of desiccation and disappearance of the crumpled and yellowish colored leaves | still free of crumpled and yellowish colored leaves and dried branches |  | 
O=C1C=CC(=O)c2c(O)cccc21 [5-hydroxy-naphthalene-1,4-dione] |  |  | Phenotypic improvements of the plant were observed with the birth of new shoots on the branches previously in a state of desiccation and disappearance of the crumpled and yellowish colored leaves | still free of crumpled and yellowish colored leaves and dried branches
